Entries after “also recorded” stand apart in the source; their conditions may differ.
Tests used:
[1] = tested on: SYO-1 human biphasic synovial sarcoma tumor; assay: SYO-1 xenograft tumor growth in NOD SCID mice; assay type: in vivo; settings: 1 mg/kg, i.p., daily, 3 weeks; FIG. 14
Protocol: Method: NOD SCID mice (Beijing Anikeeper Biotech, Beijing) were inoculated subcutaneously on the right flank with the single cell suspension of SYO-1 human biphasic synovial sarcoma tumor cells (5×106) in 100 μL Dulbecco's Modified Eagle Medium (DMEM) with 10% fetal bovine serum (FBS). The mice were randomized into either control group [10% dimethyl sulfoxide (DMSO), 40% polyethylene glycol (PEG400) and 50% water], or treatment group D1 when the mean tumor size reached about 117 mm^3. Mice were dosed daily through intraperitoneal (i.p.) route over the course of 3 weeks. All dose volumes were adjusted by body weights in terms of mg/kg.

BRD9 = target: T1, BRD9 (Homo sapiens, UniProt Q9H8M2); assay: BRD9 degradation in synovial sarcoma tumor in vivo, western blot (Example 12); design: degradation endogenous BRD9 protein in two synovial sarcoma cell lines; endogenous in cells; host or cells: SYO1 (SYO-1) synovial sarcoma cells; settings: 1 mg/kg, i.p., 4 weeks; tumors 8, 72 and 168 hours post last dose; FIG. 15
T1 sequence (Q9H8M2 1-597): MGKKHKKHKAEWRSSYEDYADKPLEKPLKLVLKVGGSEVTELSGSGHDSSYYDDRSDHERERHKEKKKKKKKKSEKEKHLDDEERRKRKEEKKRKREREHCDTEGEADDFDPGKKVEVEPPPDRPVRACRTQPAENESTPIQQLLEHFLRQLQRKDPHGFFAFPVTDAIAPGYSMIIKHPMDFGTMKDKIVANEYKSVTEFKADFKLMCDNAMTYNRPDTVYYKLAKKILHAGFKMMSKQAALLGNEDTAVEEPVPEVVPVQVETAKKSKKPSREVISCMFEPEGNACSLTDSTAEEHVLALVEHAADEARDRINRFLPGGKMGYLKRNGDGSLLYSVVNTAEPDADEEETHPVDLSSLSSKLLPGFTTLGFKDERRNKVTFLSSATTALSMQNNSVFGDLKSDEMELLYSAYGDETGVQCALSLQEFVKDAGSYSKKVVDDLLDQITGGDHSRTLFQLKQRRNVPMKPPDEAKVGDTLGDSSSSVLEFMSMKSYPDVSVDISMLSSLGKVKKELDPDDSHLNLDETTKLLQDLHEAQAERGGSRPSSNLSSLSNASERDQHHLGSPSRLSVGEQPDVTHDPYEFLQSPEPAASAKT
Protocol: Method: Mice were treated with D1, 1 mg/kg, i.p. for 4 weeks. Mice were then euthanized, and tumors were collected at 8 hours, 72 hours, and 168 hours post last dose. Tumors were lysed with 1× RIPA lysis buffer (Boston BioProducts, BP-115D) with protease and phosphatase protein inhibitor (Roche Applied Science #04906837001 & 05892791001). Equal amounts of lysate (30 μg) were loaded in 4-12% Bis-Tris Midi Protein Gels in 1×MOPS buffer; samples ran at 120 V for 120 minutes. Protein was transferred to membrane with TransBlot at 250 mA for 150 minutes, and then membranes were blocked with Odyssey blocking buffer for 1 hour at room temperature. Membranes were hybridized overnight in cold room with primary antibodies. Images acquired using Li-COR imaging system (Li-COR Biotechnology, Lincoln, Nebr.).

[2] = tested on: synovial sarcoma cell lines (SYO1, Yamato, HS-SY-II, and ASKA); assay: Growth of synovial sarcoma cell lines (Example 2: confluency, crystal violet, colonies); assay type: cell-based; settings: FIGS. 4, 5, 6
Protocol: (§1) Cells were treated with DMSO or the BRD9 degrader, Compound 1, at indicated concentrations, and proliferation was monitored from day 7 to day 14 by measuring confluency over time using an IncuCyte live cell analysis system (FIG. 4). Growth medium and compounds were refreshed every 3-4 days.
(§2) Cells were seeded into 12-well plates and treated with DMSO, 1 μM BRD9 inhibitor, Compound 2 (also known as BI-7273, see Martin et al, J Med Chem. 59(10):4462-4475 (2016); see structure of compound 2 below), or 1 μM BRD9 degrader, Compound 1.
(§3) The number of cells was optimized for each cell line. Growth medium and compounds were refreshed every 3-5 days. SYO1, Yamato, A549, 293T and HS-SY-II cells were fixed and stained at day 11. ASKA cells were fixed and stained at day 23. Staining was done by incubation with crystal violet solution (0.5 g Crystal Violet, 27 ml 37% Formaldehyde, 100 mL 10×PBS, 10 mL Methanol, 863 dH20 to 1 L) for 30 min followed by 3× washes with water and drying the plates for at least 24 h at room temperature. Subsequently plates were scanned on an Odyssey CLx Imaging system (FIG. 5).
(§4) Cells were seeded into 96-well ultra-low cluster plate (Costar, #7007) in 200 μL complete media and treated at day 2 with DMSO, Staurosporin, or BRD9 degrader, Compound 1, at indicated doses (FIG. 2C). Media and compounds were changed every 5 d and cell colonies were imaged at day 14.

[3] = tested on: non-synovial control cancer cell lines (293T, A549, G401); assay: Growth of non-synovial control cancer cell lines (Example 2); assay type: cell-based; settings: FIGS. 4, 5, 6
Protocol: as §1, §2, §3, §4

[4] = tested on: synovial sarcoma cell lines (SYO1, HS-SY-II, and ASKA); assay: Growth of synovial sarcoma cell lines, crystal violet, day 14 (Example 3); assay type: cell-based
Protocol: (§5) Procedure: Cells were seeded into 6-well or 12-well plates and were treated daily with a BRD9 degrader (Compound 1), a bromo-domain BRD9 binder (Compound 2), E3 ligase binder (lenalidomide), DMSO, or staurosporin (positive control for cell killing), at indicated concentrations. The number of cells was optimized for each cell line. Growth media was refreshed every 5 days. By day 14, medium was removed, cells were washed with PBS, and stained using 500 μL of 0.005% (w/v) crystal violet solution in 25% (v/v) methanol for at least 1 hour at room temperature. Subsequently plates were scanned on an Odyssey CLx Imaging system.

[5] = tested on: non-synovial control cancer cell lines (RD, HCT116, and Calu6); assay: Growth of non-synovial control cancer cell lines, crystal violet, day 14 (Example 3); assay type: cell-based; settings: FIG. 8
Protocol: as §5

SYO1 cells [6] = assay: Cell cycle analysis, Click-iT Plus EdU flow cytometry; assay type: cell-based, human; settings: 200 nM or 1 μM, 8 or 13 days; compared to DMSO and lenalidomide
Protocol: (§6) Procedure: SYO1 cells were treated for 8 or 13 days with DMSO, a BRD9 degrader (Compound 1) at 200 nM or 1 μM, or an E3 ligase binder (lenalidomide) at 200 nM. Compounds were refreshed every 5 days. Cell cycle analysis was performed using the Click-iT™ Plus EdU Flow Cytometry Assay (Invitrogen). The apoptosis assay was performed using the Annexin V-FITC Apoptosis Detection Kit (Sigma A9210). Assays were performed according to the manufacturer's protocol.

SYO1 cells [7] = assay: Apoptosis assay, Annexin V-FITC; assay type: cell-based, human; settings: 8 days; compared to DMSO controls
Protocol: as §6

Row | SMILES | tumor growth [1] | BRD9 level in tumor (BRD9) | growth of the cells [2] | growth of the cells [3] | growth of the cells ([4]; SYO1, HS-SY-II, ASKA, day 14, FIG. 7) | growth inhibition compared with the other treatments ([4]; all synovial cell lines) | growth of the cells [5] | numbers of cells in the S-phase of the cell cycle (SYO1 cells [6]) | numbers of early- and late-apoptotic cells (SYO1 cells [7])
1 | COc1cc(-c2cn(C)c(=O)c3cnc(N4CCC4)cc23)cc(OC)c1CN1CCC(CN2CCC3(CC2)CN(c2ccc4c(c2)C(=O)N(C2CCC(=O)NC2=O)C4)C3)CC1 (racemic) [Compound D1, 3-[6-(7-[[1-([4-[6-(azetidin-1-yl)-2-methyl-1-oxo-2,7-naphthyridin-4-yl]-2,6-dimethoxyphenyl]methyl)piperidin-4-yl]methyl]-2,7-diazaspiro[3.5]nonan-2-yl)-1-oxo-3H-isoindol-2-yl]piperidine-2,6-dione] | tumor growth inhibition | complete degradation of BRD9 target up to 168 hours after dose; also recorded: BRD9 inhibition |  |  |  |  |  |  | 
2 | COc1cc(-c2cn(C)c(=O)c3cnccc23)cc(OC)c1CN(C)CC(=O)NCCOCCOCCNc1cccc2c1C(=O)N(C1CCC(=O)NC1=O)C2=O (stereo not drawn) [Compound 1, dBRD9] |  |  | inhibition of the growth of the cells | does not result in inhibition of the growth | inhibition of the growth of the cells | most significant growth inhibition | did not result in inhibition of the growth | reduced numbers of cells in the S-phase | increased numbers of early- and late-apoptotic cells
